The values below are quoted from earlier work in US20220054371A1, “TOOTH CLEANING COMPOSITION, TOOTH CLEANING AGENT, DENTAL CALCULUS REMOVAL ACCELERATOR, AND TOOTH CLEANING METHOD” (TOKUYAMA DENTAL CORPORATION, priority 2018, published 2022).

Each structure is given as a SMILES string.

For the data set the following is noted: 2.0 mg dental calculi in 1 ml of 10% aqueous solution, pH 3.1, 14 minutes.

For the compound `CC(O)C(=O)O` (stereo not shown) [lactic acid], the “weight reduction of dental calculi” value is reported as 1.0 mg.
